In patent US20240247021A1, “CRYSTAL FORMS OF KUDING SAPONIN A COMPOUND, PHARMACEUTICAL COMPOSITION AND USE THEREOF” (SHANGHAI KE PHARMACEUTICAL CO., LTD, priority 2021, published 2024):

Assay: Conditions under which the crystal forms exist stably
Assay type: physicochemical

| Compound | conditions under which the crystal form exists stably |
| --- | --- |
| C[C@@H]1O[C@@H](O[C@H]2[C@H](O[C@H]3CC[C@]4(C)[C@H]5C[C@H](O)C6=C7[C@]8(CC[C@](C)(OC8=O)[C@@]7(C)O)CC[C@@]6(C)[C@]5(C)CC[C@H]4C3(C)C)OC[C@H](O)[C@@H]2O[C@@H]2O[C@H](CO)[C@@H](O)[C@H](O)[C@H]2O)[C@H](O)[C@H](O)[C@H]1O [crystal form B, Kudinoside A] | can only exist stably at high temperature |
| C[C@@H]1O[C@@H](O[C@H]2[C@H](O[C@H]3CC[C@]4(C)[C@H]5C[C@H](O)C6=C7[C@]8(CC[C@](C)(OC8=O)[C@@]7(C)O)CC[C@@]6(C)[C@]5(C)CC[C@H]4C3(C)C)OC[C@H](O)[C@@H]2O[C@@H]2O[C@H](CO)[C@@H](O)[C@H](O)[C@H]2O)[C@H](O)[C@H](O)[C@H]1O [crystal form D, Kudinoside A] | can only exist stably when the sample is wet |
| C[C@@H]1O[C@@H](O[C@H]2[C@H](O[C@H]3CC[C@]4(C)[C@H]5C[C@H](O)C6=C7[C@]8(CC[C@](C)(OC8=O)[C@@]7(C)O)CC[C@@]6(C)[C@]5(C)CC[C@H]4C3(C)C)OC[C@H](O)[C@@H]2O[C@@H]2O[C@H](CO)[C@@H](O)[C@H](O)[C@H]2O)[C@H](O)[C@H](O)[C@H]1O [crystal form E, Kudinoside A] | can only exist stably when the sample is wet |
| C[C@@H]1O[C@@H](O[C@H]2[C@H](O[C@H]3CC[C@]4(C)[C@H]5C[C@H](O)C6=C7[C@]8(CC[C@](C)(OC8=O)[C@@]7(C)O)CC[C@@]6(C)[C@]5(C)CC[C@H]4C3(C)C)OC[C@H](O)[C@@H]2O[C@@H]2O[C@H](CO)[C@@H](O)[C@H](O)[C@H]2O)[C@H](O)[C@H](O)[C@H]1O [crystal form G, Kudinoside A] | can only exist stably when the sample is wet |
| C[C@@H]1O[C@@H](O[C@H]2[C@H](O[C@H]3CC[C@]4(C)[C@H]5C[C@H](O)C6=C7[C@]8(CC[C@](C)(OC8=O)[C@@]7(C)O)CC[C@@]6(C)[C@]5(C)CC[C@H]4C3(C)C)OC[C@H](O)[C@@H]2O[C@@H]2O[C@H](CO)[C@@H](O)[C@H](O)[C@H]2O)[C@H](O)[C@H](O)[C@H]1O [crystal form I2, Kudinoside A] | cannot exist stably |
| C[C@@H]1O[C@@H](O[C@H]2[C@H](O[C@H]3CC[C@]4(C)[C@H]5C[C@H](O)C6=C7[C@]8(CC[C@](C)(OC8=O)[C@@]7(C)O)CC[C@@]6(C)[C@]5(C)CC[C@H]4C3(C)C)OC[C@H](O)[C@@H]2O[C@@H]2O[C@H](CO)[C@@H](O)[C@H](O)[C@H]2O)[C@H](O)[C@H](O)[C@H]1O [crystal form L, Kudinoside A] | can only exist stably at high temperature |
